Source: patent US20180163177A1, “SERUM-FREE CULTURE MEDIUM AND METHOD FOR EXPANDING HEMATOPOIETIC STEM CELLS” (HealthBanks Biotech Co. Ltd., priority 2016, published 2018)

Tested on: CD34+ HSC
Test: HSC expansion without feeder layer, in SF-UCM or concentrated SF-UCM with supplements, 12-day culture
Type: cell-based
Settings: day 12; no feeder layer; SCGM with 6 cytokines and hydrocortisone
From the text: To test potential replacement for the feeder layers, we have tested a serum-free umbilical cord mesenchymal stem cell conditioned medium (SF-UCM) from UC-MSC. The serum-free umbilical cord mesenchymal stem cell conditioned medium is for example produced by the method described above, comprising the steps of: (a) culturing an umbilical cord mesenchymal stem cell in a serum-free cell culture medium (e.g. serum-free SCGM), and (b) isolating the conditioned cell culture medium.
In FIG. 3A and FIG. 3B, the positive control (PC) group is in IMDM as described above. The PC & S1 groups shown in FIG. 3A and 3B are grown as follows: At day 0, CD34+ HSC are thawed and co-cultured with UC-MSC feeder for 12 days with a cell density of 2.5×10^4 cells/ml, using 5% CS (cord serum)/IMDM medium containing the 6 cytokines and hydrocortisone for PC group or using SCGM containing 6 cytokines, hydrocortisone and 4 supplements for S1 group.
The S3-2 group was grown as follows: At day 0, CD34+ HSC are thawed and cultured in a culture medium mixture of 50% (v/v) SF-UCM and 50% (v/v) fresh SCGM containing 6 cytokines, hydrocortisone and 4 supplements with a cell density of 2.5×10^4 cells/ml for 12 days. The 6 cytokines, hydrocortisone and 4 supplements used herein are the same as described in example 2.
During 12-day culture, 50% culture medium is replenished as well as newly prepared UC-MSC feeder every 4 days, and CD34+ cells are maintained at a cell density of 2.5-5×10^4 cells/ml. At day 12, cumulative total cell expansion folds and CD34+ expansion folds are calculated.
The following experiment is performed to evaluate the effect of replacing feeder layers with SF-UCM or concentrated SF-UCM. The SF-UCM obtained in Example 3 was further concentrated with a 5-10 kDa cut-off membrane (preferably a 5 kDa cut-off membrane) to obtain 10 times concentrated (in volume) conditioned medium. The concentrated conditioned medium was filtered with a 0.22 μm filter, and the filtrate is collected to obtain the desired con. SF-UCM (abbreviated as “c-SF-UCM”). The results of replacing the feeder layers with SF-UCM or con.
In FIG. 4A and 4B, the PC, Sl, and S3-2 groups are the same as described in Example 3. The S3-3 group is as follows: At day 0, CD34+ HSC are thawed and cultured in a culture medium mixture of 5% (v/v) concentrated SF-UCM and 95% (v/v) SCGM containing 6 cytokines, 4 supplements, and hydrocortisone with a cell density of 2.5×10^4 cells/ml for 12 days. The 6 cytokines, hydrocortisone and 4 supplements used herein are the same as described in example 2. The above medium mixture is 50% replenished every 4 days and the cells (including CD34+ cells) are maintained at a cell density of 2.5-10×10^4 cells/ml. At day 12, cumulative total cell expansion folds and CD34+ (ISHAGE) expansion folds are calculated.
At day 0, CD34+ HSC are thawed and cultured in a corresponding culture medium in the following groups: (1) SCGM+SP+UCM group: a culture medium mixture of 5% (v/v) c-SF-UCM and 95% (v/v) SCGM containing 6 cytokines, 4 supplements and hydrocortisone; (2) SCGM+SP group: SCGM containing 6 cytokines, 4 supplements and hydrocortisone; (3) SCGM+UCM group: a culture medium mixture of 5% (v/v) c-SF-UCM and 95% (v/v) SCGM containing 6 cytokines and hydrocortisone; and (4) SCGM group: SCGM containing 6 cytokines and hydrocortisone. The 6 cytokines, hydrocortisone and 4 supplements used herein are the same as described in example 2.
The cells are cultured at a cell density of 2.5×10^4 cells/ml. The above medium mixture is 50-80% replenished every 4 days and the cells (including CD34+ cells) are maintained at a cell density of 2.5-10×10^4 cells/ml. At day 12, cumulative total cell expansion folds and CD34+ (ISHAGE) expansion folds are calculated.
In this experiment, the PC group and S3-3 group is the same as the previous examples. The culture medium is 50% replenished every 4 days, and cells are maintained at a cell density of 2.5-5×10^4 cells/ml. […]

| Molecule | CD34+ (ISHAGE) expansion folds | cumulative total cell expansion folds |
| --- | --- | --- |
| O=C1O[C@H]([C@@H](O)CO)C(O)=C1O [vitamin C, L-ascorbic acid] | alone can support the expansion | alone can support the expansion |
| Cc1c(C)c2c(c(C)c1O)CC[C@@](C)(CCC[C@H](C)CCC[C@H](C)CCCC(C)C)O2 [vitamin E, α-tocopherol] | alone is also sufficient in supporting the expansion | alone is also sufficient in supporting the expansion |
| transferrin (TF): transferrin, supplement used at 30 μg/ml | does not further increase the enhancement to any appreciable extent | does not further increase the enhancement to any appreciable extent |
